From PubChem BioAssay (NCI)
Several values for one entry are separate records, joined by “and”; a condition that tells them apart may be missing. Equal values may be shown once.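 1) Cells in 96-well plates. 2) Compound, 48 h, 5 concentrations. 3) Linear interpolation between surrounding doses. 4) Unreached endpoint = highest concentration. GI50 is the concentration that inhibits growth by half. TGI denotes the concentration required for complete inhibition of growth.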

Tests used:
Test in all cases: NCI anticancer screen, dose series, 48 h
[1] = system: HOP-62 NSCLC
[2] = system: SK-MEL-2 melanoma
[3] = system: CCRF-CEM leukemia
[4] = system: COLO 205 colon
[5] = system: SF-268 CNS
[6] = system: MALME-3M melanoma
[7] = system: OVCAR-8 ovarian
[8] = system: OVCAR-3 ovarian
[9] = system: EKVX NSCLC
[10] = system: SF-539 CNS

Structure (SMILES)	TGI [1]	TGI [2]	TGI [3]	TGI [4]	TGI [5]	TGI [6]	TGI [7]	TGI [8]	TGI [9]	TGI [10]	GI50 [1]	GI50 [2]	GI50 [3]	GI50 [4]	GI50 [5]	GI50 [6]	GI50 [7]	GI50 [8] [µM]	GI50 [9]	GI50 [10]
Clc1ccc(C(n2cc(Br)cn2)n2cc(Br)cn2)cc1	34.3 µM	33.2 µM	60.9 µM	33.8 µM	33.4 µM	31.7 µM	36.5 µM	28 µM	38.9 µM	–	–	–	–	–	–	–	–	–	–	–
COc1cccc(/C=N/C(/N=C/c2cccc(OC)c2O)c2cccc(OC)c2O)c1O	> 100 µM	43.2 µM	> 100 µM	> 100 µM	42.5 µM	–	47.9 µM	62.4 µM	52 µM	48.9 µM	–	–	–	–	–	–	–	–	–	–
CC(C)=CC1=C2C3=C(C(=O)C4(O)Oc5c(C)c6c7c(c5OC24C)[C@@H](C)CC[C@@H]7[C@@H](C)C[C@H]6C=C(C)C)C(C)CCC3C(C)C1 (stereo partly drawn)	> 100 µM	> 100 µM	> 100 µM	> 100 µM	> 100 µM	> 100 µM	> 100 µM	> 100 µM	> 100 µM	> 100 µM	> 100 µM	> 100 µM	> 100 µM	> 100 µM	> 100 µM	> 100 µM	> 100 µM	> 100	> 100 µM	> 100 µM
CC(=O)O[C@H]1C(=O)[C@@]2(C)C(C(OC(=O)c3ccccc3)C3[C@@H](O)C(OC(=O)[C@@H](O)[C@H](NC(=O)c4ccccc4)c4ccc(C(F)(F)F)cc4)C(C)=C1C3(C)C)[C@]1(OC(C)=O)CO[C@@H]1C[C@@H]2O (stereo partly drawn)	> 25 µM	> 25 µM	> 25 µM	> 25 µM	> 25 µM	> 25 µM	> 25 µM	> 25 µM	> 25 µM	> 25 µM	–	–	–	–	–	–	–	–	–	–
NC(N)=NS(=O)(=O)c1ccc(NCCc2c3ccccc3nc3ccccc23)cc1	> 100 µM	> 100 µM	> 100 µM	> 100 µM	> 100 µM	> 100 µM	> 100 µM	> 100 µM	> 100 µM	> 100 µM	–	–	–	–	–	–	–	–	–	–
COc1ccc(C2ON(c3cccc(C)n3)CC=C2C)cc1 (stereo not drawn)	> 100 µM	69.4 µM	> 100 µM	> 100 µM	> 100 µM	> 100 µM	> 100 µM	> 100 µM	> 100 µM	> 100 µM	–	–	–	–	–	–	–	–	–	–
O=C(O)C1CC(O)CN1 (stereo not drawn)	> 100 µM	> 100 µM	> 100 µM	> 100 µM	> 100 µM	> 100 µM	> 100 µM	> 100 µM	> 100 µM	> 100 µM	–	–	–	–	–	–	–	–	–	–
O=C1C[C@@H]2/C(=C(O)\C=C\c3ccccc3)C(=O)C=C[C@@H]2O1	–	3.56 µM	2.89 µM	2.62 µM	6.14 µM	3 µM	12.3 µM	1.82 µM	26 µM	8.35 µM	–	1.77 µM	0.447 µM	0.992 µM	2.09 µM	1.42 µM	3.06 µM	0.497	13 µM	2.3 µM
O=C(/C=C/c1ccc(C(F)(F)F)cc1)c1ccc(Nc2nc(NCCO)nc(Nc3ccc(Cl)cc3)n2)cc1	22 µM	24.5 µM	8.24 µM	17.3 µM	18.7 µM	28.5 µM	31.3 µM	8.12 µM	14.5 µM	6.62 µM	8.55 µM	11.7 µM	2.75 µM	4.8 µM	5.05 µM	13.9 µM	5.66 µM	2.75	3.41 µM	2.39 µM
COc1cc(C2CC(c3ccc(Nc4ccnc5cc(Cl)ccc45)cc3)=NN2c2ccc(Cl)cc2)cc(OC)c1OC (stereo not drawn)	47.5 µM	6.6 µM	> 100 µM	31.5 µM	> 100 µM	> 100 µM	> 100 µM	> 100 µM	–	7.36 µM	2.14 µM	2.35 µM	2.5 µM	3.28 µM	5.49 µM	> 100 µM	4.19 µM	1.87	–	1.74 µM
COC(=O)/C=C/c1cc2c(cc1-c1c(C(=O)O)cc(OC)c(OC)c1OC)OCO2	> 10 µM	–	> 10 µM	> 10 µM	> 10 µM	> 10 µM	> 10 µM	> 10 µM	–	> 10 µM	–	–	–	–	–	–	–	–	–	–
COC(C)(C)C/C=C/C(C)=C/C=C/C(C)=C\C=C\C(C)=C\C=C\C=C(C)\C=C\C=C(C)\C=C\C=C(C)\C=C\CC(C)(C)OC	> 150 µg/mL	> 150 µg/mL	> 150 µg/mL	> 150 µg/mL	> 150 µg/mL	> 150 µg/mL	> 150 µg/mL	–	> 150 µg/mL	> 150 µg/mL	> 150 µg/mL	> 150 µg/mL	> 150 µg/mL	> 150 µg/mL	> 150 µg/mL	> 150 µg/mL	> 150 µg/mL	–	> 150 µg/mL	> 150 µg/mL
O=c1cccccc1[O-].O=c1cccccc1[O-].O=c1cccccc1[O-].[La+3]	78.5 µM	48 µM	51.3 µM	–	–	31.9 µM	51.5 µM	55.8 µM	> 100 µM	38 µM	31.4 µM	–	–	–	–	–	–	–	–	5.62 µM
Nc1nc2c3nc(Nc4ccccc4)sc3nc(=O)n2c2sc(Nc3ccccc3)nc12	> 100 µM	–	> 100 µM	> 100 µM	> 100 µM	> 100 µM	> 100 µM	–	> 100 µM	> 100 µM	–	–	–	–	–	–	–	–	–	–
CC1OC(n2cc(F)c(=O)[nH]c2=O)C=CC1=O (stereo not drawn)	> 100 µM	28.9 µM	53 µM	89.1 µM	38.7 µM	35.3 µM	47.9 µM	29.6 µM	–	31 µM	–	–	–	–	–	–	–	–	–	–
CN(C)c1ccc(/C=C/c2cc[n+](C)c(/C=C/c3ccc(N(C)C)cc3)c2)cc1	2.31 µM	0.713 µM	3.78 µM	0.356 µM	6.26 µM	2.21 µM	1.26 µM	1.56 µM	–	3.01 µM	0.345 µM	0.256 µM	0.248 µM	0.176 µM	0.399 µM	0.39 µM	0.294 µM	0.337	–	0.393 µM
COC(=O)CC[C@H](Cc1ccccc1)NC(=O)c1csc([C@@H](C[C@H](C(C)C)N(C)C(=O)[C@@H](NC(=O)[C@H]2CCCCN2C)C(C)C)OC(C)=O)n1	> 25 µM	–	> 25 µM	–	> 25 µM	> 25 µM	> 25 µM	> 25 µM	> 25 µM	–	< 0.0025 µM	–	0.00289 µM	–	0.00785 µM	7.53 µM	0.00318 µM	< 0.0025	0.00801 µM	–
Cc1ccc(O)c(NC(=O)c2ccc(CNc3ccnc(C(F)(F)F)c3)cc2)c1	30.5 µM	–	17.7 µM	20.1 µM	38 µM	22.1 µM	> 100 µM	28.2 µM	34.9 µM	20.9 µM	4.79 µM	–	0.496 µM	5.57 µM	10.8 µM	2.53 µM	15.9 µM	11.3	4.04 µM	4.16 µM

Structure (SMILES)	TGI [1]	TGI [2]	TGI [3]	TGI [4]	TGI [5]	TGI [6]	TGI [7]	TGI [8]	TGI [9]	TGI [10]	GI50 [1]	GI50 [2]	GI50 [3]	GI50 [4]	GI50 [5]	GI50 [6]	GI50 [7]	GI50 [8] [µM]	GI50 [9]	GI50 [10]
CCOc1ccc2nc(NC(=O)C(=O)C(c3cnc4ccccc4n3)[N+](=O)[O-])sc2c1 (stereo not drawn)	> 100 µM	> 100 µM	> 100 µM	–	> 100 µM	> 100 µM	> 100 µM	> 100 µM	> 100 µM	> 100 µM	–	–	–	–	–	–	–	–	–	–
CN(C)c1ccc(/C=c2\sc3nc4ccccc4n3c2=O)cc1	> 100 µM	> 100 µM	–	> 100 µM	> 100 µM	> 100 µM	> 100 µM	> 100 µM	> 100 µM	> 100 µM	–	–	–	–	–	–	–	–	–	–
CC(C)OP(=O)(NC(=S)c1ccccc1)OC(C)C	–	> 100 µM	> 100 µM	> 100 µM	> 100 µM	> 100 µM	> 100 µM	> 100 µM	> 100 µM	> 100 µM	–	–	–	–	–	–	–	–	–	–
CC(=O)OCc1cc2ccccc2nc1C(Br)(Br)Br	56.3 µM	41.9 µM	29.3 µM	55.2 µM	39.9 µM	18.1 µM	–	30.2 µM	41.8 µM	38.2 µM	–	–	–	–	–	–	–	–	–	–
Cc1ccc(Cl)cc1NC(=O)c1sc2nc3c(cc2c1N)C(=O)CCC3	> 100 µM	> 100 µM	–	> 100 µM	> 100 µM	–	> 100 µM	–	> 100 µM	> 100 µM	> 100 µM	3.14 µM	–	4.41 µM	> 100 µM	–	> 100 µM	–	7.26 µM	4.65 µM
O=c1c(-c2ccccc2)coc2cc(OC/C(=N/O)c3ccccc3)ccc12	51.3 µM	–	> 100 µM	72.6 µM	28.7 µM	28.3 µM	50.8 µM	60.1 µM	48.5 µM	53.3 µM	18.9 µM	–	4.22 µM	26.5 µM	13.5 µM	10.4 µM	17.3 µM	24.7	13.4 µM	25.4 µM
CCN1CCC(O)(c2ccc(Cl)cc2)C(C(=O)c2ccc(Cl)cc2)C1 (stereo not drawn)	–	> 100 µM	> 100 µM	> 100 µM	> 100 µM	–	> 100 µM	> 100 µM	> 100 µM	> 100 µM	–	–	–	–	–	–	–	–	–	–
O=c1c(O)c(-c2cc(O)c(O)c(O)c2)oc2cc(O)cc(O)c12	41.4 µM	> 100 µM	> 100 µM	> 100 µM	> 100 µM	> 100 µM	33.2 µM	89.7 µM	–	> 100 µM	–	–	–	–	–	–	–	–	–	–
S=P(N1CC1)(N1CC1)N1CC1	–	–	> 85.8 µM and 622 µM	–	60.6 µM and 536 µM and 476 µM	–	58.5 µM and 523 µM and 323 µM	48.8 µM and 381 µM and 470 µM	–	49 µM and 223 µM and 182 µM	–	–	2.11 µM	–	8.67 µM and 24.8 µM	–	20.1 µM and 93.7 µM	–	–	11.4 µM and 23.3 µM
COc1ccccc1NC(=O)CC(=O)N/N=C/c1ccc(N(CCC#N)S(=O)(=O)c2ccccc2)cc1	> 100 µM	> 100 µM	> 100 µM	> 100 µM	> 100 µM	> 100 µM	> 100 µM	> 100 µM	> 100 µM	–	–	–	–	–	–	–	–	–	–	–
OCC#Cc1ccccc1C#CCCCCCC#Cc1ccccc1C#CCO	31.4 µM	–	49.6 µM	72.2 µM	38.7 µM	52.6 µM	42.1 µM	32.9 µM	42.4 µM	36.3 µM	16.2 µM	–	22.9 µM	22.8 µM	18.8 µM	20.7 µM	17.1 µM	16	21.3 µM	20 µM
O=C1c2ccccc2-c2c1c1ccccc1c(=O)n2CCCn1ccnc1	13 µM	> 100 µM	> 100 µM	> 100 µM	> 100 µM	5.75 µM	2.39 µM	–	> 100 µM	8.06 µM	2.72 µM	7.78 µM	1.51 µM	5.41 µM	3.64 µM	2.45 µM	0.87 µM	–	9.09 µM	2.33 µM
CC12CCC(Br)C(C)(C)C1CC=C1C(=O)OCC1O2 (stereo not drawn)	–	28.6 µM	–	34.7 µM	31.9 µM	–	34.9 µM	31.3 µM	47 µM	> 100 µM	–	–	–	–	–	–	–	–	–	–
COc1cc2c(cc1OC)/C(=C\c1ccccc1N)C(=O)OC2	45.4 µM	26.4 µM	7.06 µM	28.8 µM	75.4 µM	29.1 µM	–	35.7 µM	44.2 µM	31 µM	–	–	–	–	–	–	–	–	–	–
N#C/C(=C\c1ccc(Br)cc1)n1nnc2ccc(F)cc21	7.52 µM	4.98 µM	> 100 µM	4 µM	4.33 µM	4.68 µM	18.2 µM	1.49 µM	–	2.94 µM	2.33 µM	1.56 µM	0.395 µM	1.54 µM	1.84 µM	1.44 µM	1.84 µM	0.373	–	1.26 µM
C=CCC1C(=O)CC2(C)CC(=O)C(CC=C)C12C (stereo not drawn)	> 100 µM	–	> 100 µM	> 100 µM	> 100 µM	> 100 µM	> 100 µM	> 100 µM	> 100 µM	> 100 µM	–	–	–	–	–	–	–	–	–	–
O=C(NC12CC3CC(CC(C3)C1)C2)C(=O)c1c[nH]c2ccccc12	36.7 µM	32.3 µM	73.6 µM	33.5 µM	30.4 µM	28.3 µM	–	31 µM	32.2 µM	26.7 µM	–	–	–	–	–	–	–	–	–	–
